Assay results taken from patent US11998033B2, “Sweetening compositions” (PepsiCo, Inc., priority 2016, dated 2024).
Where two headings read alike, the source gives them in different places.

Key:
[1] = assay type: physicochemical
Experimental: (§1) For the examples below, turbidity is reported in NTUs and was measured at 20±2° C. using a Hach 2100AN Turbidimeter. The instrument was calibrated using a STABLCAL Calibration Kit including samples having turbidities ranging from 0.1 NTU to 7500 NTU. Test samples were measured in a Turbidimeter glass vial and NTU values were read after a 30 second stabilization period.
Suspensions of 1 weight percent rebaudioside D in water at ambient temperature were prepared in five individual beakers. Rebaudioside A, stevioside, rebaudioside C, and rebaudioside M were added to each of the first four beakers, respectively, such that that the resulting weight ratio of rebaudioside D to the added steviol glycoside was 1:5. As a control, no additional steviol glycoside was added to the fifth beaker.
After stirring, turbidity measurements were taken from each of the five samples and graphed. According to the turbidity measurements, rebaudiosides A and M had no effect on rebaudioside D solubility.

[2] = Example 4: temperature and low shear mixing (turbidity, HPLC of supernatant); assay type: physicochemical
Experimental: This study was conducted with a 5:1 mixture (weight/weight) of rebaudioside A and rebaudioside D and a 5:1 mixture (weight/weight) of a rebaudioside A composition and rebaudioside D, wherein the rebaudioside A composition included 30 weight percent stevioside.
The described blends were individually combined with water to produce compositions having rebaudioside D concentrations of 1.4 weight percent based on the total mass of the mixture, including water. The mixtures were then mixed under low shear for 10 minutes at ambient temperature (21° C.). A 100 g sample was removed and centrifuged, and the resulting supernatant was analyzed for turbidity and rebaudioside A and D concentration (HPLC).
The mixtures were then warmed to 45° C. and mixed for 10 minutes. Another 100 g sample was removed and analyzed as described above.
The mixtures were finally warmed to 65° C. and mixed for 10 minutes. Another 100 g sample was removed an analyzed as described above.
This experiment was repeated with 10:1 mixtures of the compositions described above, wherein the final rebaudioside D concentration in each of the compositions was 1.43 weight percent, based on the total mass of the composition, including water.

[3] = assay type: physicochemical; remark: listed apart in the source
Experimental: as §1
Varying concentrations of rebaudioside A, rebaudioside C, rebaudioside B, and rebaudioside M were then added individually to the stevioside/rebaudioside D solutions at 70° C. The solutions were allowed to cool to room temperature. Each sample's appearance was noted and turbidity measurements were taken to track solubility.

[4] = assay type: physicochemical; remark: listed apart in the source
Experimental: Rebaudioside D has a better sugar character and taste profile than Rebaudioside A, but only about 200 ppm Rebaudioside D can be solubilized in water at 23° C. after about 30 minutes stirring. While up to about 450 ppm rebaudioside can be solubilized after extended stirring, the amount of time required to prepare these higher concentration rebaudioside D solutions is impractical on a commercial scale. Similarly, while an 8000 ppm aqueous rebaudioside D solution can be prepared by heating rebaudioside D in water to nearly 100° C. for two hours, cooling the solution results in recrystallization, making the solution impractical to work with on a commercial manufacturing scale.
For example, in certain embodiments, rebaudioside D solubility can be increased 50 fold, for example, from about 200 ppm (0.02 weight percent) up to about 10,000 ppm (1 weight percent), when a 1 weight percent rebaudioside D suspension is combined with sufficient stevioside to produce a 50,000 ppm (5 weight percent) steviol glycoside solution. In other embodiments, even greater increases in rebaudioside D solubility can be observed.

[5] = Example 1: room temperature rebaudioside D solubility (turbidity); assay type: physicochemical; details: 0.02 to 1.5 weight percent, ambient temperature, FIG. 1
Experimental: as §1
Rebaudioside D was added to a number of beakers in increasing concentrations (0.02 weight percent, 0.04 weight percent, 0.1 weight percent, 0.5 weight percent, 1 weight percent, and 1.5 weight percent) at ambient temperature. Turbidity measurements were taken to track solubility in the various samples and the results were plotted (FIG. 1).

[6] = Example 2: rebaudioside D solubility at elevated temperatures (turbidity); assay type: physicochemical
Experimental: as §1
The samples prepared in Example 1 were heated to 70° C. and turbidity was measured again. At 70° C., the 0.5 weight percent rebaudioside D sample was soluble. But the 1 and 1.5 weight percent rebaudioside D samples continued to show maximum turbidity (about 12,000 NTU).

[7] = Example 8: effect of temperature on solubility (appearance, turbidity); assay type: physicochemical
Experimental: as §1
Aqueous samples containing the amounts of rebaudioside D and stevioside listed in Table 3 were prepared by combining the noted amounts of rebaudioside D and stevioside in water. The samples were then warmed to the temperatures noted in the table.
The appearance of all the samples prepared as above was noted and turbidity measurements were taken to track solubility.

[8] = Example 9: HPLC analysis of aqueous filtrate after centrifugation and filtration; assay type: physicochemical; details: rebaudioside B added at 0.4% to stevioside/rebaudioside D solution, centrifuged, filtered
Experimental: To confirm that the cloudiness observed in samples comprising rebaudioside B was due to the rebaudioside B itself, a solution of stevioside and rebaudioside D was prepared and rebaudioside B was added at a concentration of 0.4% to form a cloudy suspension. The sample was centrifuged and filtered and the aqueous filtrate was analyzed by HPLC. […] Thus, the cloudiness observed with the addition of rebaudioside B was due to the insolubility of rebaudioside B itself, and not due to the degradation of the rebaudioside D/stevioside complex.

Which “effect of added steviol glycoside on rebaudioside D solubility” value [1] does the source give for `C=C1C[C@@]23CC[C@H]4[C@@](C)(CCC[C@@]4(C)C(=O)O[C@@H]4O[C@H](CO)[C@@H](O)[C@H](O)[C@H]4O)[C@@H]2CC[C@]1(O[C@@H]1O[C@H](CO)[C@@H](O)[C@H](O[C@@H]2O[C@H](CO)[C@@H](O)[C@H](O)[C@H]2O)[C@H]1O[C@@H]1O[C@H](CO)[C@@H](O)[C@H](O)[C@H]1O)C3` [rebaudioside A] here?
Its value is “no effect”.

What about the “effect on solubility of rebaudioside D” value ([2]; 5:1 mixture with rebaudioside D, 1.4 weight percent rebaudioside D, low shear 10 minutes, at each of 21° C., 45° C. and 65° C.) of the same molecule?
Its value is “neither rebaudioside A nor the rebaudioside A/stevioside composition including 30 weight percent stevioside enhanced the solubility of rebaudioside D”.

What about the “effect on solubility of rebaudioside D” value ([2]; 10:1 mixture with rebaudioside D, 1.43 weight percent rebaudioside D, low shear) of the same molecule?
The value was “did not enhance the solubility of rebaudioside D”.

What about the “effect of adding the steviol glycoside on rebaudioside D's solubility” value [3] of the same molecule?
The value was “does not affect rebaudioside D's solubility”.

Which “aqueous rebaudioside D solution that can be prepared by heating” value [4] does the source give for `C=C1C[C@@]23CC[C@H]4[C@@](C)(CCC[C@@]4(C)C(=O)O[C@@H]4O[C@H](CO)[C@@H](O)[C@H](O)[C@H]4O[C@@H]4O[C@H](CO)[C@@H](O)[C@H](O)[C@H]4O)[C@@H]2CC[C@]1(O[C@@H]1O[C@H](CO)[C@@H](O)[C@H](O[C@@H]2O[C@H](CO)[C@@H](O)[C@H](O)[C@H]2O)[C@H]1O[C@@H]1O[C@H](CO)[C@@H](O)[C@H](O)[C@H]1O)C3` [rebaudioside D] here?
The value was 8000 ppm.

And the “solubility in water at room temperature” value [5]?
The value was “insoluble”.

And the solubility in water ([6]; 0.5 weight percent sample at 70° C.)?
The solubility in water was “soluble”.

And the turbidity ([6]; 1 and 1.5 weight percent samples at 70° C.)?
Its turbidity is “about 12,000 NTU”.

What about the “solubility of rebaudioside D at 70° C. and on cooling” value ([7]; all four concentrations of rebaudioside D below 0.4) of the same molecule?
The value was “dissolved at 70° C., but precipitated from solution when cooled unless stevioside was present”.

What about the “solubility of rebaudioside D” value ([7]; concentration of 0.1%, 20° C., even up to a 4:1 ratio of stevioside to rebaudioside D) of the same molecule?
The value was “insoluble”.

What does the source list for `C=C1C[C@@]23CC[C@H]4[C@@](C)(CCC[C@@]4(C)C(=O)O[C@@H]4O[C@H](CO)[C@@H](O)[C@H](O[C@@H]5O[C@H](CO)[C@@H](O)[C@H](O)[C@H]5O)[C@H]4O[C@@H]4O[C@H](CO)[C@@H](O)[C@H](O)[C@H]4O)[C@@H]2CC[C@]1(O[C@@H]1O[C@H](CO)[C@@H](O)[C@H](O[C@@H]2O[C@H](CO)[C@@H](O)[C@H](O)[C@H]2O)[C@H]1O[C@@H]1O[C@H](CO)[C@@H](O)[C@H](O)[C@H]1O)C3` [rebaudioside M]?
effect of added steviol glycoside on rebaudioside D solubility [1]: no effect; effect of adding the steviol glycoside on rebaudioside D's solubility [3]: does not affect rebaudioside D's solubility

With `C=C1C[C@@]23CC[C@H]4[C@@](C)(CCC[C@@]4(C)C(=O)O[C@@H]4O[C@H](CO)[C@@H](O)[C@H](O)[C@H]4O)[C@@H]2CC[C@]1(O[C@@H]1O[C@H](CO)[C@@H](O)[C@H](O)[C@H]1O[C@@H]1O[C@H](CO)[C@@H](O)[C@H](O)[C@H]1O)C3` [stevioside] as the molecule, how does the “effect of added steviol glycoside on rebaudioside D solubility” value [1] read?
Its value is “clear mixture”.

For rebaudioside B, which solubility [3] is on record?
Its solubility is “insoluble”.

And the “appearance after adding the steviol glycoside” value ([3]; added at or over 0.2% to stevioside/rebaudioside D solution)?
Its value is “cloudy solution”.

And the “share of the amount initially added contained in the aqueous filtrate” value [8]?
The value was 65%.

For rebaudioside C, which turbidity ([1]; 1 weight percent rebaudioside D in water, ambient temperature, rebaudioside D to added steviol glycoside 1:5 by weight, FIG. 3) is on record?
The turbidity was “about 1000 NTU”.

What about the “effect of adding the steviol glycoside on rebaudioside D's solubility” value [3] of the same molecule?
Its value is “does not affect rebaudioside D's solubility”.
